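How tested: cells in 96-well plates exposed to compound for 48 hours at five concentrations. Here, GI50 denotes the concentration required for 50% inhibition of growth.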 Activity calls are given as the source filed them. No stated cut-off is given here; in the data, active = GI50 up to about 1.1 µM and inactive = higher.
How the values were obtained:
Assay in all cases: inhibition of tumour cell growth, NCI panel, 48 h
KM12 = system: KM12
LOX IMVI = system: LOX IMVI
Malme-3M = system: Malme-3M
NCI-H226 = system: NCI-H226
NCI-H460 = system: NCI-H460
OVCAR-8 = system: OVCAR-8
SF-539 = system: SF-539
SK-MEL-28 = system: SK-MEL-28
SK-MEL-2 = system: SK-MEL-2
SNB-19 = system: SNB-19
SR = system: SR
SW-620 = system: SW-620
UACC-257 = system: UACC-257
IGROV-1 = system: IGROV-1
K562 = system: K562
MOLT-4 = system: MOLT-4
RPMI-8226 = system: RPMI-8226

SMILES | GI50 (KM12) | GI50 (LOX IMVI) | GI50 (Malme-3M) | GI50 (NCI-H226) | GI50 (NCI-H460) | GI50 (OVCAR-8) | GI50 (SF-539) | GI50 (SK-MEL-28) | GI50 (SK-MEL-2) | GI50 (SNB-19) | GI50 (SR) | GI50 (SW-620) | GI50 (UACC-257) | GI50 (IGROV-1) | GI50 (K562) | GI50 (MOLT-4) | GI50 (RPMI-8226)
COC(=O)C1C(/C=C/c2ccoc2)ON2CCC[C@@H]12 (stereo not given in full) | > 100 µM (inactive) | > 100 µM (inactive) | 33.6 µM (inactive) | > 100 µM (inactive) | > 100 µM (inactive) | > 100 µM (inactive) | > 100 µM (inactive) | > 100 µM (inactive) | > 100 µM (inactive) | > 100 µM (inactive) | > 100 µM (inactive) | > 100 µM (inactive) | > 100 µM (inactive) |  |  |  | 
CCOP(=O)(OCC)C(C(=O)OC)C(=O)C(=O)Nc1cccc([N+](=O)[O-])c1 (stereo not given) | > 100 µM (inactive) | > 100 µM (inactive) | > 100 µM (inactive) | > 100 µM (inactive) | > 100 µM (inactive) | > 100 µM (inactive) | > 100 µM (inactive) | > 100 µM (inactive) | > 100 µM (inactive) | > 100 µM (inactive) | > 100 µM (inactive) | > 100 µM (inactive) | > 100 µM (inactive) | > 100 µM (inactive) | > 100 µM (inactive) | > 100 µM (inactive) | 
COc1ccc(-c2c(N)[n+]([O-])c3ccccc3[n+]2[O-])cc1OC | > 100 µM (inactive) |  | > 100 µM (inactive) | > 100 µM (inactive) | > 100 µM (inactive) | > 100 µM (inactive) | > 100 µM (inactive) | > 100 µM (inactive) | > 100 µM (inactive) | > 100 µM (inactive) | > 100 µM (inactive) | > 100 µM (inactive) | > 100 µM (inactive) | > 100 µM (inactive) | > 100 µM (inactive) | > 100 µM (inactive) | > 100 µM (inactive)
Cn1c2ccccc2c2cc(-c3ccccc3)c3c(c21)C(=O)c1ccccc1C3=O | 21.5 µM (inactive) |  | 22.3 µM (inactive) | 22 µM (inactive) |  | 18.2 µM (inactive) | 22.9 µM (inactive) | 14.7 µM (inactive) | 19.5 µM (inactive) | 61.1 µM (inactive) | 4.79 µM (inactive) | 18.8 µM (inactive) | 18 µM (inactive) | 21 µM (inactive) | 21.4 µM (inactive) | 5.04 µM (inactive) | 4.67 µM (inactive)
COc1ccc2c(c1OC)C(=O)c1cnccc1C2=O | > 100 µM (inactive) | > 100 µM (inactive) | > 100 µM (inactive) | > 100 µM (inactive) | > 100 µM (inactive) | > 100 µM (inactive) | > 100 µM (inactive) | > 100 µM (inactive) | > 100 µM (inactive) | > 100 µM (inactive) | > 100 µM (inactive) | > 100 µM (inactive) | > 100 µM (inactive) | > 100 µM (inactive) | > 100 µM (inactive) | > 100 µM (inactive) | > 100 µM (inactive)
Cn1c(=O)c2/c(n(C)c1=O)=N\C=c1\c(=O)n(C)c(=O)n(C)\c1=N\C=2 | > 100 µM (inactive) |  | > 100 µM (inactive) |  | > 100 µM (inactive) | > 100 µM (inactive) | > 100 µM (inactive) | > 100 µM (inactive) | > 100 µM (inactive) | > 100 µM (inactive) |  | > 100 µM (inactive) | > 100 µM (inactive) | > 100 µM (inactive) | > 100 µM (inactive) | > 100 µM (inactive) | 
Nc1ccn(CCNCCn2cnc3nc(N)[nH]c(=O)c32)c(=O)n1 | > 100 µM (inactive) | > 100 µM (inactive) | > 100 µM (inactive) | > 100 µM (inactive) | > 100 µM (inactive) | > 100 µM (inactive) | > 100 µM (inactive) | > 100 µM (inactive) | > 100 µM (inactive) | > 100 µM (inactive) | > 100 µM (inactive) | > 100 µM (inactive) | > 100 µM (inactive) | > 100 µM (inactive) | > 100 µM (inactive) |  | > 100 µM (inactive)
C[n+]1c2n(c3nc(N)[nH]c(=O)c31)C1OC(C2)C(O)C1O (stereo not given) | > 100 µM (inactive) | > 100 µM (inactive) | > 100 µM (inactive) | > 100 µM (inactive) |  | > 100 µM (inactive) | > 100 µM (inactive) | > 100 µM (inactive) | > 100 µM (inactive) | > 100 µM (inactive) | > 100 µM (inactive) | > 100 µM (inactive) | > 100 µM (inactive) | > 100 µM (inactive) | > 100 µM (inactive) | > 100 µM (inactive) | 
CCCCN(CCCC)CC(C(=O)Nc1ccc([N+](=O)[O-])cc1[N+](=O)[O-])/C(C)=N\NC(=O)c1ccncc1 (stereo not given) |  | > 100 µM (inactive) | > 100 µM (inactive) |  | > 100 µM (inactive) | > 100 µM (inactive) | > 100 µM (inactive) | > 100 µM (inactive) | > 100 µM (inactive) | > 100 µM (inactive) |  | > 100 µM (inactive) | > 100 µM (inactive) | > 100 µM (inactive) | > 100 µM (inactive) | > 100 µM (inactive) | > 100 µM (inactive)
COc1ccc(CNc2nc3c(NC(C)=O)cc(C(F)(F)F)cc3nc2-c2ccccc2)cc1OC | > 100 µM (inactive) | > 100 µM (inactive) | 95.3 µM (inactive) |  | > 100 µM (inactive) | 56.8 µM (inactive) | 25.2 µM (inactive) | 19 µM (inactive) | 57.7 µM (inactive) | 45.6 µM (inactive) |  | 77.3 µM (inactive) | > 100 µM (inactive) | > 100 µM (inactive) | > 100 µM (inactive) | > 100 µM (inactive) | 68.5 µM (inactive)
CC(C)(C)C(C#N)(C#N)c1ccc(C(C#N)(C#N)C(C)(C)C)nn1 | > 100 µM (inactive) | > 100 µM (inactive) | > 100 µM (inactive) |  | > 100 µM (inactive) | > 100 µM (inactive) | > 100 µM (inactive) | > 100 µM (inactive) | > 100 µM (inactive) | 63.4 µM (inactive) |  | > 100 µM (inactive) | > 100 µM (inactive) | > 100 µM (inactive) | > 100 µM (inactive) | > 100 µM (inactive) | > 100 µM (inactive)
Cc1ccc([N+](=O)[O-])cc1NC(=O)C(=O)Cc1nc2ccc(C(=O)c3ccccc3)cc2nc1O | 93.3 µM (inactive) | > 100 µM (inactive) | > 100 µM (inactive) | > 100 µM (inactive) | > 100 µM (inactive) | > 100 µM (inactive) | > 100 µM (inactive) | > 100 µM (inactive) |  | > 100 µM (inactive) | 60 µM (inactive) | > 100 µM (inactive) | > 100 µM (inactive) | > 100 µM (inactive) |  | > 100 µM (inactive) | 
COc1ccccc1NC(=O)CC(=O)N/N=C/c1ccc(N(CCC#N)S(=O)(=O)c2ccccc2)cc1 | > 100 µM (inactive) | > 100 µM (inactive) | > 100 µM (inactive) | > 100 µM (inactive) | > 100 µM (inactive) | > 100 µM (inactive) |  | > 100 µM (inactive) | > 100 µM (inactive) | > 100 µM (inactive) | > 100 µM (inactive) | > 100 µM (inactive) | > 100 µM (inactive) | > 100 µM (inactive) | > 100 µM (inactive) | > 100 µM (inactive) | > 100 µM (inactive)
O=C(CCc1nnc(S)[nH]1)Nc1cc(Cl)c(Cl)cc1Cl | > 100 µM (inactive) | > 100 µM (inactive) | > 100 µM (inactive) | > 100 µM (inactive) | > 100 µM (inactive) | > 100 µM (inactive) | > 100 µM (inactive) | > 100 µM (inactive) | > 100 µM (inactive) | > 100 µM (inactive) |  | > 100 µM (inactive) | > 100 µM (inactive) | > 100 µM (inactive) | > 100 µM (inactive) | > 100 µM (inactive) | > 100 µM (inactive)
Cc1c(Cl)ccc2c1NC(=O)C2(O)CC(=O)c1ccc2ccccc2c1 (stereo not given) | 37.2 µM (inactive) | 44.7 µM (inactive) | > 100 µM (inactive) | 24.4 µM (inactive) | 67.1 µM (inactive) | 55.2 µM (inactive) | 49.8 µM (inactive) | 48.2 µM (inactive) | > 100 µM (inactive) | 45.8 µM (inactive) |  | 47.8 µM (inactive) | 55.8 µM (inactive) | 37.5 µM (inactive) | 28.6 µM (inactive) | 18.6 µM (inactive) | 19.1 µM (inactive)
CN(C)c1ccc(C(=C2C=CC(=[N+](C)C)C=C2)c2ccc(N(C)C)cc2)cc1 [GENTIAN VIOLET] | 0.0942 µM (active) | 0.0379 µM (active) | 0.245 µM (active) | 0.179 µM (active) | 0.0574 µM (active) |  | 0.258 µM (active) | 0.53 µM (active) | 0.207 µM (active) | 0.347 µM (active) | 0.211 µM (active) |  | 0.176 µM (active) | 0.21 µM (active) | 0.0327 µM (active) | 0.144 µM (active) | 0.0237 µM (active)
C=CC(=O)N1C/C(=C\c2ccc(Cl)c(Cl)c2)C(=O)/C(=C/c2ccc(Cl)c(Cl)c2)C1 | 0.237 µM (active) | 0.288 µM (active) |  | 1.25 µM (inactive) | 0.152 µM (active) | 0.115 µM (active) | 0.181 µM (active) | 0.458 µM (active) | 0.42 µM (active) |  | 0.0259 µM (active) | 0.0607 µM (active) | 0.474 µM (active) | 0.124 µM (active) | 0.0404 µM (active) | 0.103 µM (active) | 0.0246 µM (active)
Cc1ccc(C(c2c(O)c3ccccc3n(-c3ccccc3)c2=O)c2c(O)c3ccccc3n(-c3ccccc3)c2=O)cc1 | > 100 µM (inactive) | > 100 µM (inactive) | > 100 µM (inactive) | > 100 µM (inactive) |  |  | > 100 µM (inactive) | > 100 µM (inactive) | > 100 µM (inactive) | > 100 µM (inactive) | 62.4 µM (inactive) | > 100 µM (inactive) |  |  | > 100 µM (inactive) | 24.2 µM (inactive) | > 100 µM (inactive)
